Common to all, as to assay: NCI tumour cell line growth inhibition, 48 h
Test [1] relates to NCI-H23.
Test [2] has as its system SNB-19.
Test [3] concerns TK-10.
Test [4] deals with HCT-116.
The subject of test [5] is CCRF-CEM.
For test [6], the system named is RPMI-8226.
Test [7] has as its system HOP-62.
The test system of test [8] is OVCAR-8.
Test [9] concerns NCI-H226.
For test [10], the system named is HCT-15.
Test [11] relates to Malme-3M.
Test [12] has as its system MOLT-4.
In test [13] the test system is COLO 205.
Test [14] relates to NCI-H460.
In test [15] the test system is SK-MEL-28.
Test [16] relates to K562.
The test system of test [17] is UACC-257.
In test [18] the test system is OVCAR-5.
Test [19] relates to SF-268.
The test system of test [20] is CAKI-1.

The text below walks through data of ChEMBL document CHEMBL1201862, “PubChem BioAssay data set” (2004).

Molecules are shown by their SMILES.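 96-well plates; 48 h exposure; 5 concentrations. Endpoints by linear interpolation between flanking doses. Not reached: highest tested concentration assigned. Here, GI50 denotes the concentration required for 50% inhibition of growth.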 Activity calls are given as the source filed them. No stated cut-off is given here; in the data, active = GI50 up to about 1.1 µM and inactive = higher.

In the case of `C/C(=C1\N=C(c2ccccc2)OC1=O)c1ccccc1`, the GI50 in test [1], in test [2], in [3], in [4], in [5] and in [6] was > 100 µM (inactive) each time. The GI50 is > 100 µM (inactive) in [7]; 70.8 µM (inactive) in [8]; > 100 µM (inactive) in [9]; greater than 100 µM in test [10]; > 100 µM (inactive) in test [11]; > 100 µM (inactive) in [12]. The GI50 in [13], in test [14], in test [15], in [16], in test [17] and in test [18] was > 100 µM (inactive) in each case. Also, the GI50 in test [19] and in test [20] was > 100 µM (inactive) throughout.

Take `CC1C(=O)N(c2ccccc2)NC12CCCc1ccccc12` (stereo not given): the GI50 in [1], in test [2], in test [3], in test [4], in test [5] and in test [6] was > 100 µM (inactive) each time. Moreover, the GI50 in test [7] is > 100 µM (inactive); in test [8] it was > 100 µM (inactive); in [9] it was > 100 µM (inactive); in test [10] it was greater than 100 µM; in test [11] it was > 100 µM (inactive); in test [12], > 100 µM (inactive). For the same compound, the GI50 in test [13], in test [14], in test [15], in [16], in test [17] and in [18] was > 100 µM (inactive) in each case. For the same compound, the GI50 in test [19] and in test [20] was > 100 µM (inactive) throughout.

Regarding `Cc1cc2c(ccc[n+]2[O-])[n+]([O-])c1`, the GI50 in test [1], in test [2], in test [3], in [4], in [5] and in test [6] was > 100 µM (inactive) throughout. Further, the GI50 in test [7] is > 100 µM (inactive); in test [8], > 100 µM (inactive); in test [9], > 100 µM (inactive); in test [10], greater than 100 µM; in test [11], > 100 µM (inactive); in test [12], > 100 µM (inactive). The GI50 in [13], in test [14], in [15], in test [16], in test [17] and in [18] was > 100 µM (inactive) each time. The GI50 in test [19] and in test [20] was > 100 µM (inactive) each time.
